Experimental data as given in US8912121B2, “Herbicidal compositions comprising 4-amino-3-chloro-5-fluoro-6-(4-chloro-2-fluoro-3-methoxyphenyl)pyridine-2-carboxylic acid or a derivative thereof and certain PS II inhibitors” (Dow Agrosciences LLC, priority 2012, dated 2014).

Tests used:
[1] = test system: SETFA (Setaria faberi, giant foxtail); experiment: Pre-emergence soil-applied mixtures, greenhouse; assay type: in vivo, Setaria faberi Herrm.; conditions: for Visual Weed Control (%) Obs: 27 DAA
Excerpt: (§1) Seeds or nutlets of the desired test plant species were planted in a soil matrix prepared by mixing a loam soil (32 percent silt, 23 percent clay, and 45 percent sand, with a pH of about 6.5 and an organic matter content of about 1.9 percent) and calcareous grit in an 80 to 20 ratio. The soil matrix was contained in plastic pots with a volume of 1 quart and a surface area of 83.6 square centimeters (cm^2).
(§2) Treatments consisted of the benzyl ester of 4-amino-3-chloro-5-fluoro-6-(4-chloro-2-fluoro-3-methoxy-phenyl)pyridine-2-carboxylic acid (compound A) formulated as an SC (suspension concentrate) and various herbicidal components alone and in combination. Forms of compound A were applied on an acid equivalent basis.
(§3) Other herbicidal components were applied on an acid equivalent or active ingredient basis and included the PSII-inhibiting herbicides, atrazine formulated as Atrazine® 90WDG, metribuzin formulated as Metribuzin 75DF, simazine formulated as Princep Caliber 90, tebuthiuron formulated as Spike 80DF, cyanazine (technical grade material), hexazinone (technical grade material), linuron (technical grade material), terbuthylazine (technical grade material), and diuron formulated as Diuron 4L.
(§4) Treatment requirements were calculated based upon the rates being tested, the concentration of active ingredient or acid equivalent in the formulation, and a 12 mL application volume at a rate of 187 L/ha.
(§5) For treatments comprised of formulated compounds, measured amounts of compounds were placed individually in 25 mL glass vials and diluted in a volume of 1.25% (v/v) Agri-Dex® crop oil concentrate (COC) to obtain 12× stock solutions. […] Application solutions were prepared by adding an appropriate amount of each stock solution (e.g., 1 mL) and diluted to the appropriate final concentrations with the addition of 10 mL of an aqueous mixture of 1.25% (v/v) COC so that the final spray solutions contained 1.25% (v/v) COC.
For treatments comprised of technical compounds, weighed amounts can be placed individually in 25 mL glass vials and dissolved in a volume of 97:3 (v/v) acetone/DMSO to obtain 12× stock solutions. […] Application solutions can be prepared by adding an appropriate amount of each stock solution (e.g., 1 mL) and diluted to the appropriate final concentrations with the addition of 10 mL of an aqueous mixture of 1.5% (v/v) COC so that the final spray solutions contain 1.25% (v/v) COC. When technical materials are used, the concentrated stock solutions can be added to the spray solutions so that the final acetone and DMSO concentrations of the application solutions are 16.2% and 0.5%, respectively.
For treatments comprised of formulated and technical compounds, weighed amounts of the technical materials can be placed individually in 25 mL glass vials and dissolved in a volume of 97:3 (v/v) acetone/DMSO to obtain 12× stock solutions, and measured amounts of the formulated compounds can be placed individually in 25 mL glass vials and diluted in a volume of 1.5% (v/v) COC or water to obtain 12× stock solutions. […] Application solutions can be prepared by adding an appropriate amount of each stock solution (e.g., 1 mL) and diluted to the appropriate final concentrations with the addition of an appropriate amount of an aqueous mixture of 1.5% (v/v) COC so that the final spray solutions contain 1.25% (v/v) COC. As required, additional water and/or 97:3 (v/v) acetone/DMSO can be added to individual application solutions so that the final acetone and DMSO concentrations of the application solutions being compared are 8.1% and 0.25%, respectively.
All stock solutions and applications solutions were visually inspected for compound compatibility prior to application. Spray solutions were applied to the soil with an overhead Mandel track sprayer equipped with a 8002E nozzles calibrated to deliver 187 L/ha over an application area of 0.503 m^2 at a spray height of 18 inches (46 cm) above average pot height. […]

[2] = test system: SETVI (Setaria viridis, green foxtail); experiment: Pre-emergence soil-applied mixtures, greenhouse; assay type: in vivo, Setaria viridis (L.) Beauv.
Excerpt: as §1, §2, §3, §4
For treatments comprised of formulated compounds, measured amounts of compounds were placed individually in 25 mL glass vials and diluted in a volume of 1.25% (v/v) Agri-Dex® crop oil concentrate (COC) to obtain 12× stock solutions. […]
(§6) For treatments comprised of formulated and technical compounds, weighed amounts of the technical materials can be placed individually in 25 mL glass vials and dissolved in a volume of 97:3 (v/v) acetone/DMSO to obtain 12× stock solutions, and measured amounts of the formulated compounds can be placed individually in 25 mL glass vials and diluted in a volume of 1.5% (v/v) COC or water to obtain 12× stock solutions. […]

[3] = test system: AMARE (Amaranthus retroflexus, redroot pigweed); experiment: Postemergence herbicidal activity of mixtures in cereal crops, greenhouse; assay type: in vivo, Amaranthus retroflexus L.
Experimental: Seeds of the desired test plant species were planted in Sun Gro MetroMix® 306 planting mixture, which typically has a pH of 6.0 to 6.8 and an organic matter content of about 30 percent, in plastic pots with a surface area of 103.2 square centimeters (cm^2). When required to ensure good germination and healthy plants, a fungicide treatment and/or other chemical or physical treatment was applied. The plants were grown for 7-36 days in a greenhouse with an approximate 14 hour photoperiod which was maintained at about 18° C. during the day and about 17° C. during the night. Nutrients and water were added on a regular basis and supplemental lighting was provided with overhead metal halide 1000-Watt lamps as necessary. The plants were employed for testing when they reached the second or third true leaf stage.
Treatments consisted of the benzyl ester of 4-amino-3-chloro-5-fluoro-6-(4-chloro-2-fluoro-3-methoxy-phenyl)pyridine-2-carboxylic acid (Compound A), formulated as an SC, a second cereal herbicide alone and then both in combination.
Other herbicidal components were applied on an active ingredient basis and included PSII-inhibiting herbicides.
Measured aliquots of benzyl ester of 4-amino-3-chloro-5-fluoro-6-(4-chloro-2-fluoro-3-methoxy-phenyl)pyridine-2-carboxylic acid (Compound A) were placed in 25 milliliter (mL) glass vials and diluted in a volume of 1.25% (v/v) Agri-Dex® crop oil concentrate to obtain stock solutions. Compound requirements are based upon a 12 mL application volume at a rate of 187 liters per hectare (L/ha). Spray solutions of the second cereal herbicide and experimental compound mixtures were prepared by adding the stock solutions to the appropriate amount of dilution solution to form 12 mL spray solution with active ingredients in two- and three-way combinations. Formulated compounds were applied to the plant material with an overhead Mandel track sprayer equipped with an 8002E nozzle calibrated to deliver 187 L/ha over an application area of 0.503 square meters (m^2) at a spray height of 18 inches (46 cm) above average plant canopy. Control plants were sprayed in the same manner with the solvent blank.
The treated plants and control plants were placed in a greenhouse as described above and watered by sub-irrigation to prevent wash-off of the test compounds. After 20-22 days, the condition of the test plants as compared with that of the control plants was determined visually and scored on a scale of 0 to 100 percent where 0 corresponds to no injury and 100 corresponds to complete kill.
Colby's equation was used to determine the herbicidal effects expected from the mixtures (Colby, S. R. 1967. Calculation of the synergistic and antagonistic response of herbicide combinations. Weeds 15:20-22). […]

[4] = test system: IPOHE (Ipomoea hederacea, ivyleaf morningglory); experiment: Pre-emergence soil-applied mixtures, greenhouse; assay type: in vivo, Ipomoea hederacea (L.) Jacq.
Excerpt: as §1, §2, §3, §4, §5
For treatments comprised of technical compounds, weighed amounts can be placed individually in 25 mL glass vials and dissolved in a volume of 97:3 (v/v) acetone/DMSO to obtain 12× stock solutions. […]
as §6

[5] = Compound A Benzyl Ester 16 g ae/ha
[6] = Compound A Benzyl Ester 32 g ae/ha

COc1c(Cl)ccc(-c2nc(C(=O)OCc3ccccc3)c(Cl)c(N)c2F)c1F [Compound A Benzyl Ester, benzyl ester of 4-amino-3-chloro-5-fluoro-6-(4-chloro-2-fluoro-3-methoxy-phenyl)pyridine-2-carboxylic acid]
Visual Weed Control (%) Obs ([1]; 16 g ae/ha): 8% | Visual Weed Control (%) Obs ([1]; 32 g ae/ha): 15% | Visual Weed Control (%)-29 DAA SETFA Obs [1, 5]: 0% | Visual Weed Control (%)-29 DAA SETFA Obs [1, 6]: 0% | Visual Weed Control (%)-29 DAA SETVI Obs [2, 5]: 10% | Visual Weed Control (%)-29 DAA SETVI Obs [2, 6]: 10% | Visual Weed Control (%) - 21 DAA AMARE Obs ([3]; Compound A Benzyl Ester 2.5 g ai/ha): 20% | Visual Weed Control (%) - 21 DAA AMARE Obs ([3]; Compound A Benzyl Ester 5 g ai/ha): 38% | Visual Weed Control (%) - 33 DAA IPOHE Obs [4, 5]: 0% | Visual Weed Control (%) - 33 DAA IPOHE Obs [4, 6]: 5%
